# Source: ChEMBL document CHEMBL1201862, “PubChem BioAssay data set” (2004)
#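 How tested: cells in 96-well plates exposed to compound for 48 hours at five concentrations. Abbreviation: GI50, concentration required for 50% inhibition of growth.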 Active and inactive are the calls of the source. No stated cut-off is given here; in the data, active = GI50 up to about 1.1 µM and inactive = higher.
# How the values were obtained:
# Assay in all cases: NCI tumour cell line growth inhibition, 48 h
# RXF 393 = test system: RXF 393
# M14 = test system: M14
# MOLT-4 = test system: MOLT-4
# Malme-3M = test system: Malme-3M
# OVCAR-5 = test system: OVCAR-5
# NCI-H23 = test system: NCI-H23
# HOP-92 = test system: HOP-92
# HT-29 = test system: HT-29
# SW-620 = test system: SW-620
# OVCAR-8 = test system: OVCAR-8
# K562 = test system: K562
# ACHN = test system: ACHN
# SF-539 = test system: SF-539
# SK-MEL-2 = test system: SK-MEL-2
# SK-MEL-5 = test system: SK-MEL-5
# HCT-15 = test system: HCT-15
# BT-549 = test system: BT-549
# PC-3 = test system: PC-3
# EKVX = test system: EKVX
# MDA-N = test system: MDA-N
Compound,GI50 (RXF 393),GI50 (M14),GI50 (MOLT-4),GI50 (Malme-3M),GI50 (OVCAR-5),GI50 (NCI-H23),GI50 (HOP-92),GI50 (HT-29),GI50 (SW-620),GI50 (OVCAR-8),GI50 (K562),GI50 (ACHN),GI50 (SF-539),GI50 (SK-MEL-2),GI50 (SK-MEL-5),GI50 (HCT-15),GI50 (BT-549),GI50 (PC-3),GI50 (EKVX),GI50 (MDA-N)
CC(N/N=C(\S)N1CCN(c2ccccn2)CC1)c1nccc2ccccc12 (stereo unspecified),0.908 µM (active),0.045 µM (active),< 0.01 µM (active),1.03 µM (active),0.453 µM (active),1.79 µM (inactive),0.957 µM (active),< 0.01 µM (active),0.316 µM (active),0.104 µM (active),< 0.01 µM (active),0.838 µM (active),0.646 µM (active),4.23 µM (inactive),0.897 µM (active),0.641 µM,10.4 µM (inactive),0.589 µM (active),–,–
COC(=O)Cc1ccc(Oc2nc3ccccc3nc2-c2cccs2)cc1,19.1 µM (inactive),> 100 µM (inactive),> 100 µM (inactive),> 100 µM (inactive),> 100 µM (inactive),> 100 µM (inactive),24.2 µM (inactive),> 100 µM (inactive),> 100 µM (inactive),36.4 µM (inactive),> 100 µM (inactive),> 100 µM (inactive),52 µM (inactive),53.5 µM (inactive),> 100 µM (inactive),> 100 µM,57.8 µM (inactive),> 100 µM (inactive),> 100 µM (inactive),–
CCN(CC)CCCNc1nncc2cc3c([nH]c4ccccc43)c(C)c12,–,20.5 µM (inactive),1.49 µM (inactive),17.6 µM (inactive),14.4 µM (inactive),14.1 µM (inactive),–,4.03 µM (inactive),4.4 µM (inactive),7.29 µM (inactive),7.03 µM (inactive),10.2 µM (inactive),16 µM (inactive),36.4 µM (inactive),19.3 µM (inactive),16 µM,17.9 µM (inactive),8.13 µM (inactive),8.38 µM (inactive),16.4 µM (inactive)
COC(=O)c1ccc(-c2nc(C#N)c(N)o2)cc1,> 100 µM (inactive),> 100 µM (inactive),> 100 µM (inactive),> 100 µM (inactive),> 100 µM (inactive),35.8 µM (inactive),–,> 100 µM (inactive),> 100 µM (inactive),57.1 µM (inactive),> 100 µM (inactive),> 100 µM (inactive),> 100 µM (inactive),> 100 µM (inactive),> 100 µM (inactive),> 100 µM,23.8 µM (inactive),> 100 µM (inactive),> 100 µM (inactive),–
O=c1[nH]c2ccc(C(F)(F)F)cc2nc1Cc1ccccc1,27.2 µM (inactive),29.9 µM (inactive),16.2 µM (inactive),–,–,19.6 µM (inactive),18.7 µM (inactive),25.4 µM (inactive),39.4 µM (inactive),39.5 µM (inactive),38.5 µM (inactive),29.1 µM (inactive),31.3 µM (inactive),24.7 µM (inactive),24.7 µM (inactive),36.1 µM,34 µM (inactive),26.4 µM (inactive),25.8 µM (inactive),–
Cc1cn(CC2=NCC(C)(C)CN2)c(=O)[nH]c1=O,> 100 µM (inactive),> 100 µM (inactive),–,> 100 µM (inactive),> 100 µM (inactive),> 100 µM (inactive),> 100 µM (inactive),> 100 µM (inactive),> 100 µM (inactive),> 100 µM (inactive),–,> 100 µM (inactive),–,> 100 µM (inactive),> 100 µM (inactive),> 100 µM,> 100 µM (inactive),> 100 µM (inactive),> 100 µM (inactive),> 100 µM (inactive)
O=C(O)c1cc2ccccc2c(/N=N/c2c([N+](=O)[O-])cc([N+](=O)[O-])cc2S(=O)(=O)O)c1O,> 100 µM (inactive),> 100 µM (inactive),> 100 µM (inactive),> 100 µM (inactive),> 100 µM (inactive),> 100 µM (inactive),> 100 µM (inactive),> 100 µM (inactive),> 100 µM (inactive),> 100 µM (inactive),> 100 µM (inactive),> 100 µM (inactive),–,> 100 µM (inactive),> 100 µM (inactive),> 100 µM,> 100 µM (inactive),> 100 µM (inactive),> 100 µM (inactive),> 100 µM (inactive)
O=C1/C(=C\c2cccs2)Oc2ccccc21,65.8 µM (inactive),84.5 µM (inactive),33.9 µM (inactive),–,> 100 µM (inactive),40.6 µM (inactive),35.2 µM (inactive),63.7 µM (inactive),> 100 µM (inactive),70.8 µM (inactive),74.5 µM (inactive),47.2 µM (inactive),–,> 100 µM (inactive),51.6 µM (inactive),36.6 µM,41.2 µM (inactive),43.2 µM (inactive),25.9 µM (inactive),> 100 µM (inactive)
COc1cc(=O)oc(/C=C/C=C/C=C/C(C)=C\C2(C)OC(C)C(C)(O)C2O)c1C (stereo unspecified),–,> 100 µM (inactive),> 100 µM (inactive),–,> 100 µM (inactive),> 100 µM (inactive),> 100 µM (inactive),> 100 µM (inactive),> 100 µM (inactive),> 100 µM (inactive),> 100 µM (inactive),> 100 µM (inactive),> 100 µM (inactive),> 100 µM (inactive),> 100 µM (inactive),> 100 µM,> 100 µM (inactive),> 100 µM (inactive),> 100 µM (inactive),> 100 µM (inactive)
O=C(O)Cn1ncn(NC(=O)Cc2ccccc2)c1=S,–,> 10 µM (inactive),> 10 µM (inactive),> 10 µM (inactive),> 10 µM (inactive),> 10 µM (inactive),> 10 µM (inactive),> 10 µM (inactive),> 10 µM (inactive),> 10 µM (inactive),> 10 µM (inactive),> 10 µM (inactive),> 10 µM (inactive),–,> 10 µM (inactive),> 10 µM,> 10 µM (inactive),> 10 µM (inactive),> 10 µM (inactive),> 10 µM (inactive)
O=[N+]([O-])c1ccc(OCc2nnc(CCCCCCCCc3nnc(COc4ccc([N+](=O)[O-])cc4)o3)o2)cc1,25.1 µM (inactive),> 100 µM (inactive),> 100 µM (inactive),> 100 µM (inactive),> 100 µM (inactive),81.5 µM (inactive),> 100 µM (inactive),> 100 µM (inactive),> 100 µM (inactive),–,> 100 µM (inactive),> 100 µM (inactive),–,> 100 µM (inactive),> 100 µM (inactive),> 100 µM,> 100 µM (inactive),> 100 µM (inactive),> 100 µM (inactive),–
COC(=O)C1=C(CCCCO[Si](C)(C)C(C)(C)C)NC(=O)N2[C@H](CCOCc3ccccc3)CC[C@@H]12,–,58.3 µM (inactive),> 100 µM (inactive),40 µM (inactive),> 100 µM (inactive),17.6 µM (inactive),32.1 µM (inactive),–,–,–,87.9 µM (inactive),> 100 µM (inactive),33.7 µM (inactive),75.3 µM (inactive),13 µM (inactive),40.6 µM,45.8 µM (inactive),26.9 µM (inactive),31.5 µM (inactive),55.3 µM (inactive)
CC(CCOc1ccc2ccc(=O)oc2c1)C1=CC(=O)C(C)(C)O1 (stereo unspecified),–,3.92 µM (inactive),2.12 µM (inactive),3.04 µM (inactive),9.27 µM (inactive),2.81 µM (inactive),3.56 µM (inactive),3.3 µM (inactive),1.92 µM (inactive),1.96 µM (inactive),–,3.18 µM (inactive),1.69 µM (inactive),3.37 µM (inactive),5.13 µM (inactive),1.71 µM,2.72 µM (inactive),4.03 µM (inactive),2.68 µM (inactive),2.77 µM (inactive)
CC(=O)Oc1ccc(-c2cc3ccccc3oc2=O)cc1OC(C)=O,–,21.6 µM (inactive),3.47 µM (inactive),51.4 µM (inactive),15.9 µM (inactive),53.2 µM (inactive),–,36 µM (inactive),33.3 µM (inactive),24.1 µM (inactive),27.5 µM (inactive),16.8 µM (inactive),21.6 µM (inactive),38.5 µM (inactive),–,10.7 µM,35.2 µM (inactive),47.5 µM (inactive),21.8 µM (inactive),25.8 µM (inactive)
O=C1C(Cl)=C(Nc2ccc(S(=O)(=O)O)cc2)C(=O)c2ccccc21,19.7 µM (inactive),21.4 µM (inactive),42.1 µM (inactive),20.1 µM (inactive),> 100 µM (inactive),37.7 µM (inactive),17.3 µM (inactive),> 100 µM (inactive),22 µM (inactive),30.1 µM (inactive),28.2 µM (inactive),22 µM (inactive),19.9 µM (inactive),23.7 µM (inactive),13.4 µM (inactive),35.2 µM,76.2 µM (inactive),23 µM (inactive),15.7 µM (inactive),–
COc1ccc2nc3ccccc3c(NCCCCCN(CCCl)CCCl)c2c1,–,0.0581 µM (active),0.0165 µM (active),0.524 µM (active),0.207 µM (active),0.0863 µM (active),0.04 µM (active),0.0354 µM (active),0.0227 µM (active),0.0274 µM (active),0.0229 µM (active),0.0266 µM (active),0.0787 µM (active),0.194 µM (active),0.119 µM (active),0.0619 µM,0.643 µM (active),0.0469 µM (active),0.485 µM (active),0.121 µM (active)
